This passage reports IC50 results from patent US10913738B2 (BRISTOL-MYERS SQUIBB COMPANY, priority 2017, dated 2021).

SMILES strings stand for the structures. pIC50: −log10 of the molar value. Where two headings read alike, the source gives them in different places.

Experiment [1] deals with T1, His-GST-TVMV-hRIPK1(1-324) (Homo sapiens, UniProt Q13546).
T1 construct: The coding region of human RIPK1(1-324) flanked by NdeI site at 5′ end; made in house; host or cells: Spodoptera frugiperda (Sf9) insect cells, baculovirus
T1 sequence (Q13546 1-324): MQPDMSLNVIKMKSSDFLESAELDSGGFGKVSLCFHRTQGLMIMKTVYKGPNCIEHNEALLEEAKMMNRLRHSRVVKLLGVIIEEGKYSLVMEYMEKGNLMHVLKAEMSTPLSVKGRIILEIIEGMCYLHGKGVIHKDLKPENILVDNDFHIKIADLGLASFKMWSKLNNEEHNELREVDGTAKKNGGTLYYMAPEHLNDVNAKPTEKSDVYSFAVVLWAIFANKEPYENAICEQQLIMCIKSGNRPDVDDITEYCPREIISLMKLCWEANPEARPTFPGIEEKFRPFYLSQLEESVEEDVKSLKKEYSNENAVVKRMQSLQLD
Kind of experiment: RIPK1 HTRF Binding Assay.

For experiment [2], the system named is MLKL phosphorylation in HT29-L23 human colorectal adenocarcinoma cells. Kind of experiment: MLKL Phosphorylation High-Content Assay. Format: cell-based. The note with it: Homo sapiens. In outline:
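Cells incubated six hours at 37° C., then phospho-MLKL (S358) immunostained overnight at 4° C. and imaged by high-content microscopy. Phosphorylation quantified as mean circ-ring average intensity ratio; IC50 and Ymax from 4-parameter logistic fits.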

Setting [3] is: x marks IC50 class 20-200 nM, read-out: RIPK1 HTRF binding 20-200 nM.
Setting [4] is: x marks IC50 class >200 nM, read-out: pMLKL cell activity >200 nM.
[5] abbreviates: x marks IC50 class 20-200 nM, read-out: pMLKL cell activity 20-200 nM.
Setting [6] is: x marks IC50 class <20 nM, read-out: RIPK1 HTRF binding <20 nM.
Setting [7] is: x marks IC50 class <20 nM, read-out: pMLKL cell activity <20 nM.

For the molecule `COc1nc(C)c(-c2ccn3nc(N)nc3c2)cc1C(=O)NCc1cccc(OC(F)F)c1` [Example 204, 5-{2-amino-[1,2,4]triazolo[1,5-a]pyridin-7-yl}-N-{[3-(difluoromethoxy)phenyl]methyl}-2-methoxy-6-methylpyridine-3-carboxamide], the pIC50 in experiment [1] (setting [3]) was 6.70 to 7.70; in experiment [2] (setting [4]), less than 6.70.

For the molecule `COc1ncc(-c2ccn3nc(N)nc3c2)cc1C(=O)NCc1ccccc1C(=O)N1CCC(F)(F)C1` [Example 377, 5-(2-amino-[1,2,4]triazolo[1,5-a]pyridin-7-yl)-N-(2-(3,3-difluoropyrrolidine-1-carbonyl)benzyl)-2-methoxynicotinamide], the pIC50 in experiment [1] (setting [3]) and in experiment [2] (setting [5]) was 6.70 to 7.70 throughout.

Regarding `COc1nc(C)c(-c2ccn3nc(N)nc3c2)cc1C(=O)NCc1cc(F)ccc1C(=O)N1CCC(F)(F)C1` [Example 381, 5-(2-amino-[1,2,4]triazolo[1,5-a]pyridin-7-yl)-N-(2-(3,3-difluoropyrrolidine-1-carbonyl)-5-fluorobenzyl)-2-methoxy-6-methylnicotinamide], the pIC50 in experiment [1] (setting [6]) and in experiment [2] (setting [7]) was greater than 7.70 throughout.

In the case of `COc1ncc(-c2ccn3nc(N)nc3c2)cc1C(=O)NCc1ccccc1SC(C)C` [Example 143, 5-{2-amino-[1,2,4]triazolo[1,5-a]pyridin-7-yl}-2-methoxy-N-{[2-(propan-2-ylsulfanyl)phenyl]methyl}pyridine-3-carboxamide], the pIC50 in experiment [1] (setting [6]) and in experiment [2] (setting [7]) was greater than 7.70 in each case.

Take `CC(CCNC(=O)c1ccnc(-c2ccn3nc(N)nc3c2)c1)c1ccccc1` (stereo not drawn) [Example 72, 2-{2-Amino-[1,2,4]triazolo[1,5-a]pyridin-7-yl}-N-(3-phenylbutyl)pyridine-4-carboxamide]: the pIC50 in experiment [1] (setting [3]) is 6.70 to 7.70; in experiment [2] (setting [4]), less than 6.70.

As to `COc1ncc(-c2ccn3nc(N)nc3c2)cc1C(=O)NC1CCCC(NC(=O)OC(C)(C)C)C1` (stereo not drawn) [Example 426, tert-butyl (3-(5-(2-amino-[1,2,4]triazolo[1,5-a]pyridin-7-yl)-2-methoxynicotinamido)cyclohexyl)carbamate], the pIC50 was less than 6.70 in experiment [1] (x marks IC50 class >200 nM, read-out: RIPK1 HTRF binding >200 nM) and less than 6.70 in experiment [2] (setting [4]).

For the molecule `Cc1ncc(C(=O)NCc2cccnc2OCC2CCC2)cc1-c1ccn2nc(N)nc2c1` [Example 261, 5-{2-amino-[1,2,4]triazolo[1,5-a]pyridin-7-yl}-N-{[2-(cyclobutylmethoxy)pyridin-3-yl]methyl}-6-methylpyridine-3-carboxamide], the pIC50 in experiment [1] (setting [3]) is 6.70 to 7.70; in experiment [2] (setting [4]), less than 6.70.

Take `COc1nc(C)c(-c2ccn3nc(N)nc3c2)cc1C(=O)NCc1ccccc1OC1CCCC1` [Example 219, 5-{2-amino-[1,2,4]triazolo[1,5-a]pyridin-7-yl}-N-{[2-(cyclopentyloxy)phenyl]methyl}-2-methoxy-6-methylpyridine-3-carboxamide]: the pIC50 in experiment [1] (setting [6]) and in experiment [2] (setting [7]) was greater than 7.70 in each case.

As to `COc1ncc(-c2ccn3nc(N)nc3c2)cc1C(=O)NCc1cccc(F)c1OC1CCCC1` [Example 50, 5-{2-Amino-[1,2,4]triazolo[1,5-a]pyridin-7-yl}-N-{[2-(cyclopentyloxy)-3-fluorophenyl]methyl}-2-methoxypyridine-3-carboxamide], the pIC50 in experiment [1] (setting [6]) was greater than 7.70; in experiment [2] (setting [5]) it was 6.70 to 7.70.

Regarding `Cc1ncc(-c2ccn3nc(N)nc3c2)cc1C(=O)NCc1c(F)cccc1OCC(F)(F)F` [Example 306, 5-(2-amino-[1,2,4]triazolo[1,5-a]pyridin-7-yl)-N-(2-fluoro-6-(2,2,2-trifluoroethoxy)benzyl)-2-methylnicotinamide], the pIC50 in experiment [1] (setting [3]) and in experiment [2] (setting [5]) was 6.70 to 7.70 in each case.

For the molecule `Cc1nc(C)c(-c2ccn3nc(N)nc3c2)cc1C(=O)NCc1ccccc1OCC1CC1` [Example 185, 5-{2-amino-[1,2,4]triazolo[1,5-a]pyridin-7-yl}-N-{[2-(cyclopropylmethoxy)phenyl]methyl}-2,6-dimethylpyridine-3-carboxamide], the pIC50 in experiment [1] (setting [6]) and in experiment [2] (setting [7]) was greater than 7.70 in each case.

Regarding `COc1ncc(-c2ccn3nc(N)nc3c2)cc1C(=O)NCc1cc(F)cc(F)c1OCC1CCCC1` [Example 128, 5-{2-amino-[1,2,4]triazolo[1,5-a]pyridin-7-yl}-N-{[2-(cyclopentylmethoxy)-3,5-difluorophenyl]methyl}-2-methoxypyridine-3-carboxamide], the pIC50 in experiment [1] (setting [6]) and in experiment [2] (setting [7]) was greater than 7.70 each time.

For the molecule `COc1nc(C)c(-c2ccn3nc(N)nc3c2)cc1C(=O)NCc1ccccc1OCC1CCC(F)(F)CC1` [Example 11, 5-{2-Amino-[1,2,4]triazolo[1,5-a]pyridin-7-yl}-N-({2-[(4,4-difluorocyclohexyl)methoxy]phenyl}methyl)-2-methoxy-6-methylpyridine-3-carboxamide], the pIC50 in experiment [1] (setting [6]) was greater than 7.70; in experiment [2] (setting [4]), less than 6.70.

`[2H]C([2H])(NC(=O)c1cc(-c2ccn3nc(N)nc3c2)cnc1OC)c1cc(C(F)(F)F)ccc1F` [Example 349, 5-(2-amino-[1,2,4]triazolo[1,5-a]pyridin-7-yl)-N-((2-fluoro-5-(trifluoromethyl)phenyl)methyl-d2)-2-methoxynicotinamide]: the pIC50 in experiment [1] (setting [3]) and in experiment [2] (setting [5]) was 6.70 to 7.70 in each case.

For `[2H]C([2H])(NC(=O)c1cc(-c2ccn3nc(N)nc3c2)c(C)nc1OC)c1cc(OC(F)(F)F)ccc1F` [Example 222, 5-{2-amino-[1,2,4]triazolo[1,5-a]pyridin-7-yl}-N-{[2-fluoro-5-(trifluoromethoxy)phenyl](deutero)methyl}-2-methoxy-6-methylpyridine-3-carboxamide], the pIC50 in experiment [1] (setting [6]) and in experiment [2] (setting [7]) was greater than 7.70 in each case.

With `COc1ncc(-c2ccn3nc(N)nc3c2)cc1C(=O)NCc1ccccc1Oc1ccccn1` [Example 109, 5-{2-amino-[1,2,4]triazolo[1,5-a]pyridin-7-yl}-2-methoxy-N-{[2-(pyridin-2-yloxy)phenyl]methyl}pyridine-3-carboxamide], the pIC50 in experiment [1] (setting [6]) and in experiment [2] (setting [7]) was greater than 7.70 each time.

Take `COc1ncc(-c2ccn3nc(N)nc3c2)cc1C(=O)NCc1c(F)cccc1OC(C)C` [Example 29, 5-{2-Amino-[1,2,4]triazolo[1,5-a]pyridin-7-yl}-N-{[2-fluoro-6-(propan-2-yloxy)phenyl]methyl}-2-methoxypyridine-3-carboxamide]: the pIC50 in experiment [1] (setting [6]) is greater than 7.70; in experiment [2] (setting [5]), 6.70 to 7.70.

`COc1ncc(-c2ccn3nc(N)nc3c2)cc1C(=O)NCc1cccnc1OCC1CCC1` [Example 137, 5-{2-amino-[1,2,4]triazolo[1,5-a]pyridin-7-yl}-N-{[2-(cyclobutylmethoxy)pyridin-3-yl]methyl}-2-methoxypyridine-3-carboxamide]: the pIC50 in experiment [1] (setting [6]) is greater than 7.70; in experiment [2] (setting [5]) it was 6.70 to 7.70.

`Cc1ncc(-c2ccn3nc(N)nc3c2)cc1NC(=O)c1cnn(Cc2ccccc2)c1` [Example 412, N-(5-(2-amino-[1,2,4]triazolo[1,5-a]pyridin-7-yl)-2-methylpyridin-3-yl)-1-benzyl-1H-pyrazole-4-carboxamide]: the figures for the pIC50 in experiment [1] (setting [6]) and in experiment [2] (setting [5]) were greater than 7.70 and 6.70 to 7.70, respectively.

In the case of `COc1ncc(-c2ccn3nc(N)nc3c2)cc1C(=O)NCc1c(F)cccc1OC1CCC(C)C1` (stereo not drawn) [Example 23, 5-{2-Amino-[1,2,4]triazolo[1,5-a]pyridin-7-yl}-N-({2-fluoro-6-[(3-methylcyclopentyl)oxy]phenyl}methyl)-2-methoxypyridine-3-carboxamide], the pIC50 in experiment [1] (setting [6]) and in experiment [2] (setting [7]) was greater than 7.70 throughout.

`COc1ncc(-c2ccn3nc(N)nc3c2)cc1C(=O)N1CCOC(Cc2ccccc2)C1` (stereo not drawn) [Example 428, (5-(2-amino-[1,2,4]triazolo[1,5-a]pyridin-7-yl)-2-methoxypyridin-3-yl)(2-benzylmorpholino)methanone]: the pIC50 in experiment [1] (setting [3]) was 6.70 to 7.70; in experiment [2] (setting [4]), less than 6.70.

For `[2H]C([2H])([2H])Oc1ncc(-c2ccn3nc(N)nc3c2)cc1C(=O)NCc1ccccc1OC(F)(F)F` [Example 90, 5-{2-amino-[1,2,4]triazolo[1,5-a]pyridin-7-yl}-2-(deutero)methoxy-N-{[2-(trifluoromethoxy)phenyl]methyl}pyridine-3-carboxamide], the pIC50 in experiment [1] (setting [6]) is greater than 7.70; in experiment [2] (setting [5]), 6.70 to 7.70.

Take `Cc1ncc(-c2ccn3nc(N)nc3c2)cc1C(=O)NCc1cc(C(F)(F)F)ccc1Cl` [Example 254]: the results for the pIC50 in experiment [1] (setting [6]) and in experiment [2] (setting [5]) were greater than 7.70 and 6.70 to 7.70, respectively.

For `COc1ncc(-c2ccn3nc(N)nc3c2)cc1C(=O)NCc1cc(F)cc(F)c1OC1CC(C)OC(C)C1` (stereo not drawn) [Example 362, 5-(2-amino-[1,2,4]triazolo[1,5-a]pyridin-7-yl)-N-(2-((2,6-dimethyltetrahydro-2H-pyran-4-yl)oxy)-3,5-difluorobenzyl)-2-methoxynicotinamide], the pIC50 in experiment [1] (setting [3]) and in experiment [2] (setting [5]) was 6.70 to 7.70 in each case.
